For test [1], the system named is IL-17/IL-23 and TNF signaling pathway-associated cytokine genes and chemokine genes. Put plainly: Transcription of IL-17/IL-23 and TNF signature genes in LPS-stimulated THP-1 cells (qPCR). Type of test: cell-based, human. As to conditions: 2 h; 2,4-D 5-20 μM, DEX 20-80 ng/ml. Here is the method: Sample Collection and Preparation. THP-1 cells, a human leukemia monocyte-derived cell line, have been widely used as a model to study the modulation of the immune response and the function of monocytes and monocyte-derived macrophages. Here, lipopolysaccharide (LPS)-stimulated THP-1 cells were used as a model to study the cytokine storm in vitro (Chanput et al., 2014). THP-1 cells (purchased from American Type Culture Collection, Rockville, MD) were grown in RPMI 1640 culture medium (Gibco) supplemented with 10% fetal bovine serum (FBS) (Gibco, UK), 0.05 mM 2-mercaptoethanol, and 1% penicillin/streptomycin (Invitrogen) at 37° C. in 5% CO2 in a humidified incubator. Cultured cells were plated into culture plates in appropriate volumes with a cell density of 5×10^5 cells/ml. 2,4-D was purchased from Wuhan ChemFaces Biochemical Co., Ltd (Hubei, China) and tested for cytotoxicity in THP-1 cells overnight using a commercial MTT Cell Proliferation and Cytotoxicity Assay Kit (Beyotime, Shanghai, China). […]
Real-Time Quantitative PCR. Real-time quantitative PCR was performed in triplicate using the TB Green qPCR master mix (Takara Biomedical Technology Co., Ltd, Dalian, China) on an ABI 7500 Real-Time PCR System (Thermo, USA). […] The ΔΔCT method was used to quantify relative mRNA levels as described above in Example 1 (Applied Biosystems). Data are expressed as mean±SD. […]
For orientation: Quantitative PCR measures a nucleic acid by following its amplification.

In another test the test system is IL-17. Put plainly: IL-17 gene expression in RA-patient synovial cells (RT-qPCR). Type of test: cell-based, human. As to conditions: 2 h. Here is the method:
Synovial fluid was freshly collected from 20 patients with rheumatoid arthritis (RA) by arthrocentesis. At two hours after treatment or not with 2,4-D, RA-patient synovial cells were directly lysed using TRIzol reagent (Invitrogen, USA) followed by RNA extraction according to the manufacturer's protocol. Finally, RNA was dissolved in 10 μL DEPC-treated water, quantified on a NanoDrop 2000 spectrophotometer (Thermo Scientific Inc., USA), and reverse-transcribed using the Super Script III First-Strand Synthesis System for RT-PCR kit (Thermo Scientific, USA) according to the manufacturer's protocol. PCR was performed in duplicate using SYBR Green qPCR master mix (Takara Biomedical Technology Co., Ltd, Dalian, China) on an ABI 7500 Real-Time PCR System (Thermo, USA). The cycling program was as follows: denaturation at 95° C. for 15 s, 40 cycles of 95° C. for 15 s and extension at 60° C. for 60 s, followed by melt curve generation. The ΔΔCT method was used to quantify relative mRNA levels as described in Example 1 above. The primer sequences specific for human IL-17 genes (hu-IL-17 Forward: 5′-[…]-3′; hu-IL-17 Reverse: 5′-GGCACTTTGCCTCCCAGAT-3′) (SEQ ID NOs 8 and 9, respectively) and IL-23 (see Example 1, above) were used.

In test [2] the test system is laser-induced choroidal neovascularization (CNV). Briefly: Laser-induced CNV in rats, CNV surface on lectin-labelled RPE-choroid flat-mounts. Format: in vivo, rat. Conditions: intravitreous injection. The method, then: Animals. All experiments were performed in accordance with the European Communities Council Directive 86/609/EEC and approved by local ethical committees (#2541-2015110210279792 v3). Six- to eight-week-old male Long Evans rats from the Janvier Breeding Center (Le Genest-Saint-Isle, France) were used to create a rat model of choroidal neovascularization (CNV) used as a model of human wet macular degeneration. Laser-induced CNV. After anesthesia and dilation of the pupils, coverslips were positioned on the cornea as a contact glass. […] Animals were sacrificed at 7 days (n=6 per group- and at 16 days (n=6 per group). RPE-choroid flat-mounts and CNV quantifications. Two days after FA examination (time necessary for fluorescein elimination), eyes were enucleated, fixed in 4% PFA for 15 min at room temperature and sectioned at the limbus; the cornea and lens were discarded. The retina was separated from the RPE-choroid complex. Eight radial incisions were made on the RPE-choroid, which was then flat-mounted and post-fixed with acetone for 15 min at −20° C. After washing with 0.1% Triton x100 in PBS, FITC-GSL I-Isolectin B4 (1:200, Vector, AbCys, Paris, France) was applied over night at […] Images of the CNV were captured with a digital video camera coupled to a computer system on an Olympus fluorescence microscope. […]

Molecules are shown by their SMILES.

As to `COc1cc(O)c(OC)c(O)c1C(=O)/C=C/c1ccccc1` [2,4-D, 2′,4′-dihydroxy-3′,6′-dimethoxychalcone], in test [1], the “suppression of transcription of IL-17/IL-23 and TNF signatures” value is given as 63-143 fold. Besides, the “decrease of IL-17 expression” value in the test with IL-17 (1 μg/ml) was found to be 23 fold. Moreover, the “inhibition of IL-17 expression” value with IL-17 (5 μg/ml) was 60 fold. Also, in test [2], the “CNV size (surface of lectin positive labelling)” value was “significantly reduced”.

Values taken from patent US20240335395A1, “COMPOSITIONS AND METHODS FOR PREVENTING AND/OR TREATING DISEASE ASSOCIATED WITH IL-23 EXPRESSION” (ALLSPIM, priority 2021, published 2024).
